In patent US4029688A, “Carbamic pesticidal compositions” (priority 1974, dated 1977):
In brackets after ≈: the same amount, converted by molar mass.

Tests used:
[1] = system: two-spotted mite (Tetranychus urticae Koch); assay: Mite Foliage Spray Test; format: in vivo; design: key to Mite (Spray): C: no control; B: partial control; A: excellent control; conditions: for Mite (Spray): foliage spray, 500 parts per million, six days; for LC50: Tetranychus urticae, foliar, Table II, side by side comparison, read-out: Mites Spray LD50
Experimental: (§1) Suspensions of the test compounds were prepared by dissolving one gram of compound in 50 milliliters of acetone in which had been dissolved 0.1 gram (10 percent of the weight of compound) of an alkylphenoxy polyethoxyethanol surfactant, as an emulsifying or dispersing agent. The resulting solution was mixed into 150 milliliters of water to give roughly 200 milliliters of a suspension containing the compound in finely divided form. The thus-prepared stock suspension contained 0.5 percent by weight of compound. The test concentrations in parts per million by weight employed in the tests described hereinbelow were obtained by appropriate dilutions of the stock suspension with water. The test procedures were as follows:
(§2) Adults and numphal stages of the two-spotted mite (Tetranychus urticae Koch), reared on Tendergreen bean plants at 80±5 percent relative humidity, were the test organisms. Infested leaves from a stock culture were placed on the primary leaves of two bean plants six to eight inches in height, growing in a 21/2 inch clay pot. 150 -200 Mites, a sufficient number for testing, transferred from the excised leaves to the fresh plants in a period of twenty-four hours. Following the twenty-four hour transfer period, the excised leaves were removed from the infested plants. The test compounds were formulated by diluting the stock suspension with water to give a suspension containing 500 parts of test compound per million parts of final formulation. The potted plants (one pot per compound) were placed on a revolving turntable and sprayed with 100-110 milliliters of test compound formulation by use of a DeVilbiss spray gun set at 40 psig. air pressure. This application, which lasted 25 seconds, was sufficient to wet the plants to run-off. As a control, 100-110 milliliters of a water solution containing acetone and emulsifier in the same concentrations as the test compound formulation, but containing no test compound, were also sprayed on infested plants. The sprayed plants were held at 80±5 percent relative humidity for six days, after which a mortality count of motile forms was made. Microscopic examination for motile forms was made on the leaves of the test plants. Any individual which was capable of locomotion upon prodding was considered living.
(§3) In the tests described above, the pesticidal activity of the compounds against aphid, mite, Southern Armyworm, Bean Beetle, house fly and nematode was rated as follows:
(§4) Comparison tests were conducted to assess the biological and chemical properties of certain representative species of the claimed invention in relation to their corresponding N-methyl carbamate compositions. The test procedures described above were employed in these experiments in order to determine the LD50 (number of parts per million of active ingredients required to achieve fifty percent mortality of the insects tested) for each of the compositions tested. In the case of the aphid and mite tests a side by side comparison was made of the N-methyl carbamate composition versus the corresponding perhalomethylsulfenyl derivative.

[2] = system: two-spotted mite (Tetranychus urticae Koch); assay: Mite Systemic Test; format: in vivo; design: key: C: no control; B: partial control; A: excellent control; conditions: soil drench, 20 milliliters of test formulation
Experimental: as §1, §2
Systemic treatments were made by drenching 20 milliliters of the test compound formulation into the soil around the roots of bean plants growing in 21/2 inch clay pots. These pots were held in 4 ounce wax paper containers to prevent cross-contamination and loss by leaching. The plants were 4 inches high at the time of treatment and had been infested with mites 24 hours previously. Subsequent steps for testing of the systemic miticidal activity were the same as those described above for the spray method of application.
In the tests described above, the pesticidal activity of the compounds against aphid, mite, Southern Armyworm, Bean Beetle, house fly and nematode was rated as follows: […]

[3] = system: southern armyworm (Prodenia eridania, (Cram.)); assay: Southern Armyworm Leaf Spray Test; format: in vivo; design: key to Armyworm: C: no control; B: partial control; A: excellent control; conditions: for Armyworm: leaf spray, 500 parts per million, three days; for LC50: Spodoptera eridania, Table II, read-out: Armyworm LD50
Experimental: as §1
Larvae of the southern armyworm (Prodenia eridania, (Cram.)), reared on Tendergreen bean plants at a temperature of 80°±5° F. and a relative humidity of 50±5 percent, constituted the test insects.
The test compounds were formulated by diluting the stock suspension with water to give a suspension containing 500 parts of test compound per million parts of final formulation. Potted Tendergreen bean plants of standard height and age were placed on a revolving turntable and sprayed with 100-110 milliliters of test compound formulation by use of a DeVilbiss spray gun set at 10 psig air pressure. This application, which lasted 25 seconds, was sufficient to wet plants to run-off. As a control, 100-110 milliliters of a water-acetone-emulsifier solution containing no test compound were also sprayed on infested plants. When dry, the paired leaves were separated and each one was placed in a 9 centimeter Petri dish lined with moistened filter paper. Five randomly selected larvae were introduced into each dish and the dishes were closed. The closed dishes were labeled and held at 80-85° F. for three days. Although the larvae could easily consume the whole leaf within twenty-four hours, no more food was added. Larvae which were unable to move the length of the body, even upon stimulation by prodding, were considered dead. Percent mortality was recorded for various concentration levels.
as §3, §4

Chemical stability = format: physicochemical; conditions: Table II
[4] = Peroral toxicity to mammals (rat); conditions: in vivo, po
Experimental: Certain of these compositions were also evaluated to determine their peroral toxicity to mammals. The animal selected for this experiment was the rat. The test results obtained are expressed in terms of the number of milligrams of composition per kilogram of weight of the animal required to achieve a mortality rate of 50 percent (LD50).

Structure (SMILES) | Mite (Spray) [1] | Mite (Systemic) [2] | Armyworm [3] | Stability (Chemical stability) | LC50 [1] [µg/mL] | LD50 ([4]; Table II) [mg/kg] | LC50 [3] [µg/mL] | LD50 ([4]; peroral, Table I) [mg/kg]
CCOC(=O)CSC(C)=NOC(=O)N(C)SC(Cl)(Cl)Cl | C | C | C |  |  |  |  | 
CSC(=NOC(=O)N(C)SC(Cl)(Cl)Cl)C(C)(SC)SC | A | B | C |  |  |  |  | 
CC(=NOC(=O)N(C)SC(Cl)(Cl)Cl)C(C)(C)N=[N+]=[N-] | C | C | C |  |  |  |  | 
CCOC(=O)CSC(C)(C)C=NOC(=O)N(C)SC(Cl)(Cl)Cl | C | C | C |  |  |  |  | 
CSCC(=NOC(=O)N(C)SC(Cl)(Cl)Cl)C(C)(C)C | A | A | C |  |  |  |  | 
CN(SC(Cl)(Cl)Cl)C(=O)ON=CC(C)(C)S(C)(=O)=O [2-Methyl-2-methylsulfonylpropionaldehyde O-(N-methyl-N-trichloromethanesulfenylcarbamoyl)oxime] | A | C | C |  |  |  |  | 
CC(=NOC(=O)N(C)SC(Cl)(Cl)Cl)C(C)(C)C#N | A | A | B |  |  |  |  | 
CN(SC(Cl)(Cl)Cl)C(=O)ON=CC(C)(C)[S+](C)[O-] (centres unmarked) [2-Methyl-2-methylsulfinylpropionaldehyde O-(N-methyl-N-trichloromethanesulfenylcarbamoyl)oxime] | A | A | A |  |  |  |  | 
CN(SC(F)(F)F)C(=O)ON=CC(C)(C)C#N [drawing 12] | A |  | A |  |  |  |  | 
CC(CSC(C)(C)C)=NOC(=O)N(C)SC(Cl)(Cl)Cl | C | C | C |  |  |  |  | 
CCOC(=O)CCSC(C)=NOC(=O)N(C)SC(Cl)(Cl)Cl | C | C | B |  |  |  |  | 
CC(C[N+](=O)[O-])=NOC(=O)N(C)SC(Cl)(Cl)Cl | C | C | C |  |  |  |  | 
CSCC(C)=NOC(=O)N(C)SC(Cl)(Cl)Cl | C | C | C |  |  |  |  | 
CCOC(=O)C(C)SC(C)(C)C=NOC(=O)N(C)SC(Cl)(Cl)Cl (centres unmarked) | B | B | C |  |  |  |  | 
CC(=NOC(=O)N(C)SC(Cl)(Cl)Cl)C(C)(C)[N+](=O)[O-] | A | A | B |  |  |  |  | 
CN(SC(Cl)(Cl)Cl)C(=O)ON=CC(C)(C)C#N [2-Methyl-2-cyanopropionaldehyde O-(N-methyl-N-trichloromethanesulfenylcarbamoyl)oxime] | A | A | A | stable | 23 (≈ 72.2 µM) | 28.3 | 50 (≈ 157 µM) | 
CC(=NOC(=O)N(C)SC(Cl)(Cl)Cl)SCCC#N [1-(2-Cyanoethylthio)acetaldehyde O-(N-methyl-N-trichloromethanesulfenylcarbamoyl)oxime] | A |  | A | stable | 22 (≈ 62.7 µM) |  | 6 (≈ 17.1 µM) | 85.7
COC(C)(C)C(Cl)=NOC(=O)N(C)SC(Cl)(Cl)Cl | A | A | C |  |  |  |  | 
CN(SC(Cl)(Cl)Cl)C(=O)ON=CC(C)(C)[N+](=O)[O-] [2-Methyl-2-nitropropionaldehyde O-(N-methyl-N-trichloromethanesulfenylcarbamoyl)oxime] | A | A | A | stable | 40 (≈ 118 µM) | 14 | 130 (≈ 384 µM) | 13
